Assay results taken from US20170269060A1, “Assays and Compounds to Treat Kidney Diseases” (Rush University Medical Center, priority 2014, published 2017).
Values after ≈ are worked out from the molar mass of the structure shown.

Assays:
murine podocytes [1] = test: Primary HCS screen of chemical library, cell roundness Z score, PAN injury; type: cell-based; conditions: PAN 16 μg/ml, 48 hours; for primary hit (protects podocytes from PAN damage): Z-score cutoff ≦−1.28
Method: Screening of chemical libraries, which include the MicroSource Spectrum collection (MicroSource Discovery Systems, Inc., Gaylorsville, C T, 2000 compounds) and Enzo kinase inhibitor array (Enzo Life Sciences, Farmingdale, N.Y., 80 compounds), Sigma, Millipore, Tocris and Cayman (41 compounds), was performed using multiwall plates. Podocytes cultured in multiwall plates were used in these assays. 100 nL of each compound, also in multiwall plates (at a stock concentration of 1 mM to 10 mM in DMSO), was added to each well of a podocyte containing multiwall plate using the Perkin Elmer Janus automated workstation with the help of a 96-pin or 384-pin pin tool (100 nL, PerkinElmer). The compounds were added in the absence or presence of podocyte damaging agent (such as PAN). The plates containing the compounds were subsequently placed in tissue culture incubators and cells were further cultured for 1-72 h at 37° C. A compound that decreased PAN damaged was identified by quantifying the changes in at least one of the following parameters: cell morphology, cell roundedness, F-actin intensity, number of focal adhesions, intensity or size of focal adhesions, length of actin fibers, size of actin fibers, percent damaged or percent healthy cells etc. In certain cases, hits were validated by acquiring a fresh batch of the compound from commercial sources and performing dose-response curves. Images from the primary screen were quantified for cell morphology parameter and were normalized by calculating z-score (z) for each test compound, to compensate for any plate-to-plate variability. (Wiggins, Kidney International, 2007) z was calculated for each of the test compounds using the formula: […]
where x is the raw measured value with each compound, μ is the mean of all measured raw values across a plate and a is the standard deviation of the measurements. A z-score of […], corresponding to 90% population under the curve, was used as a cutoff to identify primary hits in the assay.
To identify small molecules that protect podocytes from PAN injury, a chemical library of 2121 pharmacologically active compounds was screened. Podocytes were treated with compounds from the chemical library in the presence of PAN (16 μg/ml) at 37° C. for 48 hours. The assay plates also contained eight positive (PAN and MZR treatment) and eight negative (PAN treatment) control wells. Wells were imaged and analyzed, and the mean cell roundness per cell was calculated for each well. Mean cell roundness was normalized using plate-based positive and negative controls, and a Z score for the change in cell morphology on treatment with each compound (SD away from the plate mean) was calculated. The results from the screen are presented as a graph in FIG. 7A. Wells with nuclei counts. […] Primary hits (compounds that protected podocytes from PAN damage) were identified from the assay using a Z-score cutoff of ≦−1.28 corresponding to the 10% population on one side of the bell-shaped curve. […] Given that our assay is image based, the images from all initial hits were visually inspected manually, which eliminated 10 compounds as nonhits. […] The identified list of primary hit compounds included three Rho kinase inhibitors (Y27632, GSK 429286, and Thiazovivin) and a p38 kinase inhibitor (SB 203580). […] Next, to validate the hit compounds identified from our screen, selected primary hits were reanalyzed using independently obtained powder forms of the compounds.

murine podocytes [2] = test: Podocyte HCS phenotypic assay, PAN-induced podocyte injury; type: cell-based; conditions: for prevention of PAN induced injury, dose-response of percent damaged cells (FIG. 4A-4P): 30 ug/ml PAN, co-treatment, multi-parameter algorithm
Method: Conditionally immortalized human and murine podocytes were used in a majority of the assays. Human and murine podocytes were cultured as have been described previously (Saleem et al., JASN 13, 630-638 (2002); Mundel, Reiser et al., Experimental Cell Research, 236, p 248 (1997)). For example, murine podocytes derived from the mouse line H-2Kb-tsA58 were cultured under permissive conditions at 33° C. on rat-tail collagen coated dishes in RPMI medium supplemented with 10% heat inactivated FBS, penicillin and streptomycin (100 U/ml), and 10 U/ml recombinant mouse γ-interferon. Cells were then trypsinized and re-plated for differentiation at 37° C. in medium without γ-interferon. The cells were differentiated for 0 to 7 days and then reseeded to rat-tail collagen coated multi-well plates at a density of 1500/well or 500/well for 96 and 384 well plates, respectively. Cells were then further differentiated for another 5-14 days in the multi-well plates for subsequent experimentation with various reagents prior to fixation and analyses.
In some embodiments, podocytes were cultured at 37° C. for the first 7 days of differentiation in large tissue culture flasks and subsequently reseeded and further cultured at 37° C. in the 96-well assay plates for the next 4-6 days to provide low well-to-well variability in cell number in the assay plates and healthy podocytes expressing specific and well characterized podocyte markers synaptopodin and podocin.
Differentiated podocytes were cultured in 96-well or 384-well multiwall optical plates (PerkinElmer, Boston, Mass.). In some embodiments, differentiated podocytes were treated with various amounts of puromycin aminonucleoside (PAN), […] LPS, Adriamycin and other agents. In some embodiments, the cells were co-treated with chemical and other agents (such as mizouribine) to prevent damage from damaging agents (such as PAN). In other embodiments, the rescue agents were added 0-48 h after the addition of injury causing agents. In some embodiments, patient samples such as blood, serum, urine or other samples were added to differentiated podocytes to identify disease causing agents. In some embodiments, primary, differentiated patient podocytes were cultured to identify defects in structure and/or function.
After culturing for the appropriate time and treatment or control, cultured podocytes in multi-well optical plates were rinsed with phosphate buffered saline (PBS) and subsequently fixed using a solution of paraformaldehyde and sucrose in PBS (at a final concentration of 4% paraformaldehyde and 2% sucrose in PBS) for 30 min at room temperature. Following fixation, the cells were permeabilization using a solution of 0.3% Triton X-100 in PBS for 15 min at room temperature. For visualization of filamentous-actin (F-Actin) in cells, cells were stained with a solution of Alexa fluor 568 phalloidin (Invitrogen), as previously described. HCS CellMask Blue (Invitrogen) was used as a fluorescent stain for visualizing nuclei, cytoplasm and the individual cell boundaries. Additional proteins that were fluorescently labeled and analyzed using appropriate primary mAbs include synaptopodin (synpo, primary mAb from Santa Cruz), Paxillin (primary mAb clone Y113 from Millipore) for quantitation of focal adhesions, beta1 integrin, podocin, WT1 nephrin, CD2-AP may also be used. Other proteins may also be used for labeling. Appropriate secondary antibodies (fluorescently labeled) were used for fluorescent visualizations. High throughput confocal microscopy was done using the Opera LX (Perkin Elmer) with filters and exposure times according to manufacturer's instructions and as described before. Images were used in subsequent image analysis for quantitation of a variety of cellular parameters. Assays were performed in replicate wells for assay robustness.
Images for each frame of each well in multiple fluorescent channels were acquired using OPERA imaging system. […]

| Compound | primary hit (protects podocytes from PAN damage) (murine podocytes [1]) | prevention of PAN induced injury, dose-response of percent damaged cells (FIG. 4A-4P) (murine podocytes [2]) | also measured |
| --- | --- | --- | --- |
| C#C[C@]1(OC(C)=O)CC[C@H]2[C@@H]3CCC4=CC(=NO)CC[C@@H]4[C@H]3CC[C@@]21CC (mixture of isomers) [norgestimate] | identified |  |  |
| Cc1cccc(-c2[nH]ncc2-c2ccc3ncccc3n2)n1 [Alk5 Inhibitor2] |  | prevented PAN induced injury |  |
| O=c1cc(-c2ccc(O)cc2)oc2cc(O)cc(O)c12 [Apigenin] | primary hits | prevented PAN induced injury |  |
| COc1ccc2cc3[n+](cc2c1OC)CCc1cc2c(cc1-3)OCO2 [Berberine] | primary hits | prevented PAN induced injury |  |
| C[C@@H]1C[C@H]2[C@@H]3CCC4=CC(=O)C=C[C@]4(C)[C@@]3(F)[C@@H](O)C[C@]2(C)[C@@]1(O)C(=O)CO [DEX, Dexamethasone] |  |  | lowest concentration able to protect cells from PAN damage (murine podocytes [2]; PAN 30 μg/ml, F-actin fiber count, 48 h): 0.1 µM |
| COc1ccc(-c2cc(=O)c3c(O)cc(O)cc3o2)cc1O [Diosmetin] |  | prevented PAN induced injury |  |
| COc1cc2nc(N3CCN(C(=O)C4COc5ccccc5O4)CC3)nc(N)c2cc1OC (stereo not shown) [Doxazocin] | primary hits | prevented PAN induced injury |  |
| CCOc1ccc(Cc2nccc3cc(OCC)c(OCC)cc23)cc1OCC [Ethaverine] |  | prevented PAN induced injury |  |
| Nc1[nH]nc2nnc(-c3c(-c4ccccc4)nn4ccccc34)cc12 [FR 180204] |  | prevented PAN induced injury |  |
| CC1=C(C(=O)Nc2cc3cn[nH]c3cc2F)C(c2ccc(C(F)(F)F)cc2)CC(=O)N1 (stereo not shown) [GSK429286] | primary hit | prevented PAN induced injury |  |
| O=C1Cc2c([nH]c3ccc(Br)cc23)-c2ccccc2N1 [Kenpoullon] |  | prevented PAN induced injury |  |
| c1coc(CNc2ncnc3[nH]cnc23)c1 [Kinetin] |  | prevented PAN induced injury |  |
| NC(=O)c1ncn([C@@H]2O[C@H](CO)[C@@H](O)[C@H]2O)c1O [MZR, Mizoribine] |  |  | Z score of cell roundness (murine podocytes [1]; 37° C., negative Z score = active): −2.31±0.2; EC50 (murine podocytes [2]; Mus musculus, PAN 30 μg/ml, 48 hours, read-out: concentration reducing PAN damage by one half (half-maximal effective concentration)): 1.4 µg/mL (≈ 5.4 µM); concentration affording complete protection of podocytes from PAN injury (murine podocytes [2]; PAN 30 μg/ml, 48 hours): 5 µg/mL; dose-dependent protection of podocytes from PAN-induced injury (murine podocytes [2]; PAN 16-30 μg/ml, 48 hours, F-actin fibers and other parameters): dose-dependent protection |
| COc1nccc(-c2c(-c3ccc(F)cc3)ncn2C2CCC(O)CC2)n1 (stereo not shown) [P38 inhibitor (SB239063)] |  | prevented PAN induced injury |  |
| CN(C)c1ncnc2c1ncn2[C@@H]1O[C@H](CO)[C@@H](N)[C@H]1O [PAN, puromycin aminonucleoside] |  |  | PAN concentration causing half-maximal damage (murine podocytes [2]; Mus musculus, 48 h, read-out: PAN concentration causing half-maximal damage (half-maximal inhibitory concentration)): 16 µg/mL |
| C[S+]([O-])c1ccc(-c2nc(-c3ccncc3)c(-c3ccc(F)cc3)[nH]2)cc1 (stereo not shown) [SB 203580] | primary hit |  |  |
| O=C(NCc1ccccc1)c1csc(Nc2ccncn2)n1 [Thiazovivin] | primary hit |  |  |
| Nc1nc2nc[nH]c2c(=S)[nH]1 [Thioguanidine] | primary hits | prevented PAN induced injury |  |
| C[C@@H](N)[C@H]1CC[C@H](C(=O)Nc2ccncc2)CC1 [Y27632] | primary hit | prevented PAN induced injury |  |
| C=CC[C@]1(O)CC[C@H]2[C@@H]3CCC4=CC(=O)CCC4=C3C=C[C@@]21C [altrenogest] | identified |  |  |
| Agelasine | primary hits | prevented PAN induced injury |  |
| Derusnin |  | prevented PAN induced injury |  |
| Mundeserone |  | prevented PAN induced injury |  |
| antimycin A | primary hits |  |  |
